Measured values reported in US7498406B2, “Substantially cell membrane impermeable compound and use thereof” (priority 1999, dated 2009).

Key:
[1] = Interaction of GSAO with synthetic, peptide and protein dithiols; format: binding; details: read-out: dissociation constants, range over the dithiols
Procedure: FIG. 12. Interaction of GSAO with synthetic, peptide and protein dithiols. DMP (A) (15 μM), 6,8-thioctic acid (B) ([…]), dithiothreitol (C) (8.5 μM), TrpCysGlyProCysLys (D) (4.6 μM), TrpCysGlyHisCysLys (E) (5.5 μM) or thioredoxin (F) (4.1 μM corresponding to 20.6 μM thiols) was incubated with GSAO (0-56 μM) for 10 minutes. DTNB (950 μM) was then added and the reactions incubated for a further 10 minutes. The concentration of thiol in the reactions was determined from the absorbance of the TNB dianion at 412 nm. The solid lines represent the best non-linear least squares fit of the data to Equation 1 (A to E) or Equation 2 (F) and have been drawn using the parameter estimates in Table 1. The dotted line in part A represents a simulated titration assuming an infinite affinity of GSAO for the dithiol. GSAO bound to both synthetic, peptide and protein dithiols with dissociation constants in the range 130 nM to 1.4 μM.
Binding of GSAO to dithiols was measured from loss of thiols using the DTNB assay described above. The dissociation constant, Kd, for GSAO binding to dithiols was determined by incubating increasing concentrations of GSAO, I, with a fixed dithiol concentration, [S]T, and measuring the remaining dithiol using DTNB. Note that the concentration of dithiol equals half the TNB concentration. […]

BAE cells = experiment: Tritiated GSAO in cytosol (membrane permeability); format: in vitro ADME, bovine; details: 50 μM GSAO, 1 hour
Procedure: Human T cells (A3.01) or adherent BAE cells were incubated with complete medium containing 50 μM GSAO and ˜100,000 counts per, minute of tritiated GSAO for 1 or 72 hours. Tritiated GSAO was prepared exactly as described for GSAO except that glycine-2-^3H-glutathione (NEN, Boston, Mass.) was used in place of cold glutathione. The cells were washed and lysed by two cycles of freezing and thawing. The cytosolic constituents were collected by differential centrifugation (Ausbel et al., 2000) and the tritiated GSAO was measured. Only 0.5% of the total tritiated GSAO was found in the T cell cytosol and 0.04% in the BAE cytosol after 1 hour. Moreover, only 4.5% of the GSAO penetrated the T cell membrane after 72 hours of culture.

HT1080 tumours = experiment: Tumour growth in mice, subcutaneous administration; format: in vivo, SCID mice; details: 10 mg per kg per day
Procedure: FIG. 25. Inhibition of human fibrosarcoma and murine Lewis lung tumour growth following systemic administration of GSAO. HT1080 or Lewis lung tumours were established in the proximal midline of female 7 to 9 week old SCID or C57Bl6/J mice, respectively. When the tumours were ˜0.1 cm^3 in volume the mice were randomised into two groups (n=5) and treated with either GSAA or GSAO at a dose of 10 mg per kg per day in 0.2 mL of PBS containing 100 mM glycine. The compounds were administered subcutaneously at a site distant from the tumour. Tumour volume and animal weight was measured every 3 days. The GSAO/GSAA HT1080 tumour volume ratio at day 17 of treatment was 0.29 (part A). The GSAO/GSAA Lewis lung tumour volume ratio at day 12 of treatment was 0.29 (part B). The data points and errors represent the mean and SE of the tumour volumes.
Female 7 to 9 week old SCID or C57Bl6/J mice were used (Massachusetts General Hospital, Boston, Mass.). Mice were held in groups of 3 to 5 at a 12 hour day and night cycle and were fed with animal chow and water ad libidum. […] The tumours were measured in two diameters and tumour volume was calculated using the relationship, tumour volume=a×b^2×0.52, where a is the longest and b the shortest diameters in cm. […] Tumour volume and animal weight was measured every 3 days. […]

NC(CCC(=O)NC(CSCC(=O)Nc1ccc([As]=O)cc1)C(=O)NCC(=O)O)C(=O)O (stereo not shown) [GSAO, 4-(N-(S-glutathionylacetyl)amino)-phenylarsenoxide]
Kd [1]: 0.13 to 1.4 µM
total tritiated GSAO found in the cytosol (BAE cells): 0.04%
inhibition of the rate of fibrosarcoma tumour growth (HT1080 tumours; subcutaneous): ~70%
GSAO/GSAA HT1080 tumour volume ratio (HT1080 tumours; day 17 of treatment): 0.29
